The values below come from ChEMBL document CHEMBL1201862, “PubChem BioAssay data set” (2004).

Structures are written as SMILES.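 Where inhibition never reached the appropriate level, the endpoint shown equals the highest concentration tested. Otherwise, values were interpolated linearly from a five-concentration, 48-hour dose response in 96-well plates. GI50 is the concentration that inhibits growth by half.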 Activity calls are given as the source filed them. Rule as the data show it: active = GI50 up to about 1.1 µM and inactive = higher.

Among the test systems are K562; NCI-H226; NCI-H23; SK-MEL-5; UACC-257; COLO 205; SNB-75; HCT-15; HOP-62; HL-60; SK-OV-3; EKVX; HCT-116; SK-MEL-28; HOP-92; DMS-273; Hs-578T; T47D; PC-3; MDA-MB-435.
Holding throughout (assay): NCI-60 cell line screen, 48 h

On to `Sc1nnc(COc2ccc(Cl)cc2)o1`, for which the GI50 with K562, in the test on NCI-H226, in the test with NCI-H23, in the test with SK-MEL-5, in the test with UACC-257 and with COLO 205 was > 100 µM (inactive) each time. In addition, the GI50 is > 100 µM (inactive) with SNB-75; 31.2 µM with HCT-15; > 100 µM (inactive) in the test with HOP-62; > 100 µM (inactive) in the test with HL-60; > 100 µM (inactive) in the test with SK-OV-3; > 100 µM (inactive) in the test on EKVX. The GI50 with HCT-116 was > 100 µM (inactive); with SK-MEL-28, > 100 µM (inactive); in the test with HOP-92, 84.3 µM (inactive); with DMS-273 it was > 100 µM (inactive).
Consider `CC(C)(C)N/N=C(\Cc1occc(=O)c1O)C(=O)Nc1ccc([N+](=O)[O-])cc1[N+](=O)[O-]`, for which the GI50 in the test with K562, in the test on NCI-H226, in the test with NCI-H23, in the test on SK-MEL-5, in the test with UACC-257 and with COLO 205 was > 100 µM (inactive) each time. Besides, the GI50 with SNB-75 was > 100 µM (inactive); with HCT-15 it was above 100 µM; in the test on HOP-62, > 100 µM (inactive); with HL-60, > 100 µM (inactive); with SK-OV-3, > 100 µM (inactive); in the test with EKVX it was 66.5 µM (inactive). For the same compound, the GI50 in the test on HCT-116, in the test with SK-MEL-28, in the test on HOP-92 and in the test on DMS-273 was > 100 µM (inactive) throughout.
In the case of `CCCCCCCCSC(SCCCCCCCC)=C1C(=O)N(c2ccccc2)N=C1C`, the GI50 was 28.7 µM (inactive) in the test with K562; 64.4 µM (inactive) in the test with NCI-H226; 32.8 µM (inactive) with NCI-H23; 47 µM (inactive) with SK-MEL-5; 30.5 µM (inactive) in the test with UACC-257; 24.7 µM (inactive) in the test with COLO 205. Also, the GI50 was 41.8 µM (inactive) with SNB-75; 37.7 µM in the test on HCT-15; 46.5 µM (inactive) with HOP-62; 19.2 µM (inactive) with HL-60; 77.3 µM (inactive) in the test with SK-OV-3; 59.3 µM (inactive) in the test on EKVX. For the same compound, the GI50 in the test on HCT-116 was 14.8 µM (inactive); with SK-MEL-28, > 100 µM (inactive); in the test on HOP-92, 31.8 µM (inactive); with DMS-273 it was 49.4 µM (inactive).
As for `O=C1CCC(c2nc3cc(Cl)ccc3o2)C(=O)N1` (centres undefined), the GI50 in the test with K562, in the test on NCI-H226, in the test on NCI-H23, in the test with SK-MEL-5, with UACC-257 and with COLO 205 was > 100 µM (inactive) in each case. Further, the GI50 was 64.7 µM (inactive) with SNB-75; above 100 µM in the test on HCT-15; > 100 µM (inactive) with HOP-62; > 100 µM (inactive) with HL-60; > 100 µM (inactive) with SK-OV-3; > 100 µM (inactive) in the test with EKVX. In addition, the GI50 in the test with HCT-116, in the test on SK-MEL-28, in the test with HOP-92 and in the test with DMS-273 was > 100 µM (inactive) throughout.
In the case of `COC(=O)/C=C\C1C(C(=O)OC)C2(C(=O)OC)CCC1(C(=O)OC)N2` (centres undefined), the GI50 in the test with K562 was 12 µM (inactive); with NCI-H226 it was 19.1 µM (inactive); in the test with NCI-H23 it was 18.7 µM (inactive); in the test with SK-MEL-5 it was 19.3 µM (inactive); in the test with UACC-257, 6.5 µM (inactive); in the test with COLO 205, 4.19 µM (inactive). The GI50 in the test on SNB-75 was 18.5 µM (inactive); in the test with HCT-15 it was 3.33 µM; in the test on HOP-62, 18.1 µM (inactive); with HL-60, 2.51 µM (inactive); in the test with SK-OV-3 it was 17.9 µM (inactive); in the test with EKVX it was 27.2 µM (inactive). Further, the GI50 in the test on HCT-116 is 13.8 µM (inactive); in the test on SK-MEL-28, 13.6 µM (inactive); in the test with HOP-92, 4.81 µM (inactive); with DMS-273, 18.2 µM (inactive).
Take `N#Cc1cnsc1`: the GI50 in the test with K562, with NCI-H226, with NCI-H23, in the test with SK-MEL-5, with UACC-257 and in the test with COLO 205 was > 100 µM (inactive) throughout. For the same compound, the GI50 is > 100 µM (inactive) with SNB-75; above 100 µM with HCT-15; > 100 µM (inactive) in the test with HOP-62; > 100 µM (inactive) in the test on HL-60; > 100 µM (inactive) in the test on SK-OV-3; > 100 µM (inactive) in the test on EKVX. The GI50 in the test on HCT-116, with SK-MEL-28, with HOP-92 and in the test on DMS-273 was > 100 µM (inactive) throughout.
Consider `C[C@]12CCC(=O)C=C1CC[C@@H]1[C@@H]2[C@@H](O)C[C@@]2(C)[C@H]1CC[C@]2(O)C(=O)COC(=O)COCC(=O)O`, for which the GI50 in the test on K562, in the test with NCI-H226, with NCI-H23, with SK-MEL-5, in the test with UACC-257 and in the test on COLO 205 was > 100 µM (inactive) in each case. Moreover, the GI50 with SNB-75 is > 100 µM (inactive); in the test on HCT-15 it was above 100 µM; in the test with HOP-62, > 100 µM (inactive); with HL-60 it was > 100 µM (inactive); in the test on SK-OV-3, > 100 µM (inactive); with EKVX, > 100 µM (inactive). Besides, the GI50 in the test with HCT-116, in the test on SK-MEL-28, in the test on HOP-92 and with DMS-273 was > 100 µM (inactive) in each case.
Regarding `CN(C)CCN(C)C(=O)c1cccc2cccc(C(=O)O)c12`, the GI50 with K562, in the test on NCI-H226, with NCI-H23, in the test on SK-MEL-5, in the test with UACC-257 and with COLO 205 was > 100 µM (inactive) throughout. Also, the GI50 is > 100 µM (inactive) in the test with SNB-75; above 100 µM in the test with HCT-15; > 100 µM (inactive) in the test with HOP-62; > 100 µM (inactive) in the test on HL-60; > 100 µM (inactive) in the test on SK-OV-3; > 100 µM (inactive) in the test with EKVX. In addition, the GI50 in the test with HCT-116, with SK-MEL-28, in the test on HOP-92 and in the test with DMS-273 was > 100 µM (inactive) in each case.
Take `CCCCCCCCCCCCCCC(O)C1CCC(C(O)CCC(O)CCCCCC(O)CC2=CC(C)OC2=O)O1` (centres undefined): the GI50 is 0.0123 µM (active) in the test with K562; 1.09 µM (active) with NCI-H226; < 0.01 µM (active) in the test with NCI-H23; 0.0131 µM (active) in the test on SK-MEL-5; 0.18 µM (active) in the test on UACC-257; 2.43 µM (inactive) with COLO 205. Further, the GI50 in the test with SNB-75 was 2.22 µM (inactive); in the test on HCT-15, 1.29 µM; with HOP-62 it was 1.55 µM (inactive); with HL-60 it was 0.0117 µM (active); with SK-OV-3, 4.73 µM (inactive); with EKVX, 1.93 µM (inactive). Moreover, the GI50 in the test on HCT-116 was 1.36 µM (inactive); in the test on SK-MEL-28 it was 1.93 µM (inactive); in the test with HOP-92, 2.06 µM (inactive); with DMS-273 it was 1.4 µM (inactive).
With `O=C(CCBr)N1CCN(C(=O)CCBr)CC1` [PIPOBROMAN], the GI50 in the test with Hs-578T was 190 µM (inactive); in the test with K562, 131 µM (inactive); with NCI-H226, 84.9 µM (inactive); with NCI-H23, 56.4 µM (inactive); in the test on SK-MEL-5, 64.1 µM (inactive); in the test with UACC-257 it was 91 µM (inactive). Moreover, the GI50 in the test on COLO 205 is 92.3 µM (inactive); with SNB-75, 71.4 µM (inactive); in the test with T47D, 106 µM (inactive); with PC-3, 113 µM (inactive); in the test with MDA-MB-435, 105 µM (inactive); in the test with HCT-15, 83.8 µM. The GI50 in the test on HOP-62 is 60.3 µM (inactive); with HL-60, 13.7 µM (inactive); in the test with SK-OV-3 it was 105 µM (inactive); in the test with EKVX it was 85.7 µM (inactive); with HCT-116 it was 71.3 µM (inactive); in the test on SK-MEL-28, 99.8 µM (inactive). Further, the GI50 in the test on HOP-92 was 126 µM (inactive); in the test on DMS-273, 28.8 µM (inactive).
